Assay results as given in US4159328A, “Tetrahydro-1,3,5-thiadiazin-4-one derivative” (Nihon Nohyaku Co., Ltd., priority 1977, dated 1979).

What was measured:
Format in all cases: in vivo
[1] = tested on: larvae of brown planthopper (Nilaparvata lugens Stahl); assay: Test Example 1: insecticidal activity against larvae of brown planthopper; conditions: 120 h, third-instar larvae, 25° C., 5 days after treatment
Protocol: Insecticidal activity against larvae of brown planthopper (Nilaparvata lugens Stahl).
Testing method: Five rice seedlings of the 1.5 leaf age were dipped in a test composition of 400 ppm concentration for 30 seconds. After air-drying, the seedlings were placed in a glass tube containing 1 ml of water and infested with five third-instar larvae of brown planthopper. The glass tube was left standing in a constant temperature cabinet at 25° C. and 5 or 7 days after the treatment, dead-and-survival was observed. Mortality was calculated from the results of 3-replication test.

[2] = tested on: larvae of house mosquito (Culex pipiens pallens Coquillett); assay: Test Example 6: insecticidal activity to larvae of house mosquito; conditions: 120 h
Protocol: Insecticidal activity to larvae of house mosquito (Culex pipiens pallens Coquillett).
Test method: In a 200-ml beaker, was placed together with a feed 100 ml of a test composition diluted with deionized water to 10 ppm concentration. The test composition was infested with 20 first-instar larvae of house mosquito and the beaker was covered with a sheet of Japanese paper. The beaker was kept in a constant temperature cabinet at 25° C. Five days after the treatment, the dead-and-survival was inspected to calculate the mortality.

[3] = tested on: two-spotted spider mite (Tetranychus urticae Koch); assay: Test Example 3: activity to two-spotted spider mite; conditions: 120 h, 1,000 ppm, 5 days after treatment
From the text: Activity to two-spotted spider mite (Tetranychus urticae Koch).
Testing method: Two-spotted spider mites were set free on the pot-planted soybean in a greenhouse. On the next day, a test composition of 1,000 ppm concentration was sprayed over the soybean by means of a spray gun. Two days or five days after the treatment, dead-and-survival was inspected to calculate the mortality.

[4] = tested on: larvae of green rice leafhopper (Nephotettix cincticeps Uhler); assay: Test Example 5: activity against larvae of green rice leafhopper; conditions: 168 h, 400 ppm, second-instar larvae, 25° C., seven days after treatment, read-out: Mortality
Protocol: Activity against larvae of green rice leafhopper (Nephotettix cincticeps Uhler).
Testing method: Five rice seedlings of the 1.5 leaf age were dipped in a test composition of 400 ppm concentration for 30 seconds. After air-drying, the seedlings were placed in a glass tube containing 1 ml of water and infested with five second-instar larvae of green rice leafhopper. The glass tube was left standing in a constant temperature cabinet at 25° C. Seven days after the treatment, dead-and-survivalwas inspected to calculate the mortality (3-replication test).

SMILES | mortality at 400 ppm [1] [%] | mortality at 10 ppm [2] [%] | mortality at 1000 ppm [3] [%] | mortality at 400 ppm [4] [%]
CCN1C(=O)N(c2ccc(F)cc2)CSC1=NC(C)(C)C [Compound 280] | 100 | 90 | 80 | 
CC(C)N=C1SCN(c2cccc(C(F)(F)F)c2)C(=O)N1C [Compound 259] | 60 | 100 | 100 | 
CC(C)N1C(=O)N(c2ccccc2Cl)CSC1=NC(C)(C)CC(C)(C)C [Compound 247] | 90 | 100 | 70 | 
Cc1ccccc1N1CSC(=NC2CCCCC2)N(C2CCCCC2)C1=O [Compound 307, 2-cyclohexylimino-3-cyclohexyl-5-(o-tolyl)-tetrahydro-1,3,5-thiadiazin-4-one] | 70 | 100 | 70 | 
C=CCN1C(=O)N(c2ccc(C)cc2)CSC1=NC(C)C [Compound 315] | 100 | 100 | 100 | 
CN=C1SCN(c2ccc(Cl)cc2)C(=O)N1C [Compound 188, 2-Methylimino-3-methyl-5-(p-chlorophenyl)tetrahydro-1,3,5-thiadiazin-4-one] | 100 | 100 | 90 | 100
CC(C)N=C1SCN(c2ccc(Cl)cc2)C(=O)N1C(C)C [Compound 194] | 100 | 80 | 100 | 100
CCC(C)N=C1SCN(c2ccccc2)C(=O)N1CC (stereo not shown) [Compound 130] |  |  |  | 100
CC(C)N=C1SCN(c2cccc(Cl)c2Cl)C(=O)N1C(C)C [Compound 402] | 80 |  | 100 | 
CCN1C(=O)N(c2ccc(C)cc2)CSC1=NC(C)(C)C [Compound 312] | 100 | 100 | 100 | 
Cc1ccccc1N1CSC(=NC(C)C)N(C(C)C)C1=O [Compound 301, 2-Isopropylimino-3-isopropyl-5-(o-tolyl)-tetrahydro-1,3,5-thiadiazin-4-one] | 100 | 90 | 100 | 
CN=C1SCN(c2ccc(C)cc2C)C(=O)N1C [Compound 376] | 60 |  | 100 | 
CN=C1SCN(c2cccc(C)c2C)C(=O)N1C [Compound 381] | 60 |  | 70 | 
CC(C)Oc1ccc(N2CSC(=NC(C)(C)C)N(C(C)C)C2=O)cc1 [Compound 373] | 80 |  | 100 | 
CCC(C)N1C(=O)N(c2cccc(C)c2C)CSC1=NC(C)(C)C (stereo not shown) [Compound 385] | 100 |  | 100 | 
C=CCN1C(=O)N(c2ccc(OC)cc2)CSC1=NC(C)C [Compound 350] | 100 |  | 100 | 
C=CCN1C(=O)N(c2ccc(Cl)c(Cl)c2)CSC1=NC(C)C [Compound 421] | 60 |  | 70 | 
CCN=C1SCN(c2ccccc2)C(=O)N1CC [Compound 125] |  | 80 |  | 
CCN=C1SCN(c2cccc(C(F)(F)F)c2)C(=O)N1CC [Compound 260] | 60 |  | 100 | 
Cc1ccc(N2CSC(=NCc3ccccc3)N(Cc3ccccc3)C2=O)cc1 [Compound 321, 2-Benzylimino-3-benzyl-5-(p-tolyl)-tetrahydro-1,3,5-thiadiazin-4-one] | 85 | 70 | 70 | 
C=CCN=C1SCN(c2ccc(F)cc2)C(=O)N1C [Compound 289] | 100 |  | 100 | 
Cc1cc(Cl)ccc1N1CSC(=NC(C)(C)C)N(C(C)C)C1=O [Compound 387, 2-t-butylimino-3-isopropyl-5-(2-methyl-4-chlorophenyl)-tetrahydro-1,3,5-thiadiazin-4-one] | 100 |  | 100 | 
CC(C)N1C(=O)N(c2cccc(C(F)(F)F)c2)CSC1=NC(C)(C)C [Compound 270] | 60 | 100 | 70 | 
CC(C)N=C1SCN(c2cccc(C(F)(F)F)c2)C(=O)N1C(C)C [Compound 265, 2-Isopropylimino-3-isopropyl-5-(m-trifluoromethylphenyl)-tetrahydro-1,3,5-thiadiazin-4-one] |  | 100 |  | 
CCC(C)N1C(=O)N(c2ccc(OC(C)C)cc2)CSC1=NC(C)(C)C (stereo not shown) [Compound 374, 2-t-butylimino-3-s-butyl-5-(p-isopropoxyphenyl)-tetrahydro-1,3,5-thiadiazin-4-one] | 80 |  | 100 | 

SMILES | mortality at 400 ppm [1] [%] | mortality at 10 ppm [2] [%] | mortality at 1000 ppm [3] [%] | mortality at 400 ppm [4] [%]
Cc1ccc(N2CSC(=NC(C)C)N(C)C2=O)c(C)c1 [Compound 377, 2-Isopropylimino-3-methyl-5-(2,4-dimethyl-phenyl)-tetrahydro-1,3,5-thiadiazin-4-one] | 100 |  | 100 | 
CC(C)N=C1SCN(c2ccc(Cl)c(Cl)c2)C(=O)N1C(C)C [Compound 415] | 100 |  | 100 | 
Cc1cccc(N2CSC(=NC(C)C)N(C(C)C)C2=O)c1C [Compound 383] | 100 |  | 100 | 
CC(C)N1C(=O)N(c2cc(Cl)cc(Cl)c2)CSC1=NC(C)(C)CC(C)(C)C [Compound 409] | 60 |  | 100 | 
CCN=C1SCN(c2ccc(OC(C)C)cc2)C(=O)N1CC [Compound 371] | 75 |  | 100 | 
C=CCN=C1SCN(c2c(CC)cccc2CC)C(=O)N1CC=C [Compound 394] | 70 |  | 80 | 
Cc1ccccc1N1CSC(=NC2CCCCC2)N(C(C)C)C1=O [Compound 305] | 95 |  | 70 | 
CC(C)N1C(=O)N(c2ccc(Cl)c(Cl)c2)CSC1=NC1CCCCC1 [Compound 425] | 60 |  | 100 | 
CC(C)N1C(=O)N(c2ccc(Br)cc2)CSC1=NC(C)(C)C [Compound 294] | 100 |  | 100 | 
CCCCCCN1C(=O)N(c2ccccc2C)CSC1=NC(C)C [Compound 304] | 100 |  | 100 | 
Cc1ccc(N2CSC(=NC(C)C)N(Cc3ccccc3)C2=O)cc1 [Compound 320] | 100 | 70 | 70 | 
Cc1ccc(N2CSC(=NC(C)(C)C)N(C(C)C)C2=O)c(C)c1 [Compound 379, 2-t-butylimino-3-isopropyl-5-(2,4-dimethylphenyl)-tetrahydro-1,3,5-thiadiazin-4-one] | 100 |  | 100 | 
CCN=C1SCN(c2c(C)cccc2C)C(=O)N1CC [Compound 390] | 60 |  | 80 | 
CCCN1C(=O)N(c2ccc(C)cc2)CSC1=NC(C)(C)C [Compound 317] | 100 | 100 | 100 | 
C=CCN1C(=O)N(c2ccccc2CC)CSC1=NC(C)C [Compound 336] | 100 |  | 100 | 
CC(C)N1C(=O)N(c2cc(Cl)ccc2Cl)CSC1=NC(C)(C)C [Compound 427] | 100 |  | 100 | 
CCc1ccccc1N1CSC(=NC(C)C)N(C(C)C)C1=O [Compound 337] | 100 |  | 100 | 
CCC(C)N=C1SCN(c2cccc(C(F)(F)F)c2)C(=O)N1C(C)C (stereo not shown) [Compound 269] | 80 | 100 |  | 
CCOc1ccc(N2CSC(=NC(C)(C)C)N(C(C)C)C2=O)cc1 [Compound 367] | 80 |  | 100 | 
Cc1ccccc1N1CSC(=NCc2ccccc2)N(Cc2ccccc2)C1=O [Compound 308] | 60 | 100 | 100 | 
CCC(C)N1C(=O)N(c2cccc(C(F)(F)F)c2)CSC1=NC(C)(C)C (stereo not shown) [Compound 274] | 100 | 100 | 100 | 
Cc1ccc(N2CSC(=NC(C)C)N(C(C)C)C2=O)c(C)c1 [Compound 378, 2-isopropylimino-3-isopropyl-5-(2,4-dimethylphenyl)-tetrahydro-1,3,5-thiadiazin-4-one] | 100 |  | 100 | 
Cc1ccccc1N1CSC(=NC(C)C)N(C)C1=O [Compound 297] | 100 |  | 100 | 
CCC(C)N1C(=O)N(c2ccc(Cl)cc2Cl)CSC1=NC(C)(C)C (stereo not shown) [Compound 401] | 100 |  | 70 | 
